# Measured values reported in US10167259B2, “Allosteric inhibitors of proteasome and methods of use thereof” (THE BOARD OF REGENTS OF THE UNIVERSITY OF TEXAS SYSTEM, priority 2013, dated 2019).
# What was measured:
# MCF-7 cells = type: cell-based
# [1] = test system: polyubiquitinated proteins in MDA-MB-231 cells; test: Accumulation of polyubiquitinated proteins in treated MDA-MB-231 cells (Western blot, FK-1); type: cell-based; conditions: MDA-MB-231, 24 hrs, 160 nM; FIG. 3E
# [2] = test system: multiple myeloma RPMI8226 cells; test: Growth and viability of multiple myeloma RPMI8226 cells; type: cell-based; conditions: B1 alone
# [3] = biological target: core particle (20S) activated by regulatory particle 19S; test: In vitro activation of the core by purified regulatory particle 19S (26S reconstruction); type: biochemical; conditions: FIG. 2E; read-out: IC50, interference with in vitro activation of the core by purified regulatory particle 19S
# Source text: (§1) The grooves are utilized by Rpt2, Rpt3 and Rpt5 subunits that anchor the regulatory particle to the core particle (Lander, et al., 2009). The anchoring C-terminal tails of Rpt2 and Rpt5 subunits are responsible for core particle gate opening and activation (Lander, et al., 2009). Activation of the core by both Rpt2 and Rpt5 tails is affected by B1 (FIG. 2C). The groove accommodating the C-terminal tail of Rpt2 subunit may be a primary docking place for B1, or B1 may allosterically affect binding of Rpt2 C-terminal tail with an exceptionally high efficiency (FIG. 2D). In vitro reconstruction of the 26S proteasome assembly from the core particle (20S) and regulatory particle (19S) components is attenuated by the treatment with B1 (FIG. 2E).
# [4] = test system: post-glutamyl peptidase of the core particle; test: Inhibition of post-glutamyl peptidase of the core particle; conditions: allosteric, noncompetitive
# MDA-MB-231 cells = type: cell-based
# MCF-10A cells = type: cell-based; conditions: 160 nM; FIG. 3D
# [5] = test system: core proteasome α face (gate conformers); test: Atomic force microscopy (AFM) imaging of core proteasome gate conformers; conditions: FIG. 1E
# [6] = test system: proteasome chymotrypsin-like activity in Mcf7 lysate; test: Total chymotrypsin-like activity of the proteasome in cell lysates; type: biochemical
# Procedure: (§2) The in vitro effects of the compound B1 are also detectable in cell lysates (FIGS. 3A-E). The total chymotrypsin-like activity of the proteasome in the Mcf7 and Mcf10A lysates was measured. […] Also, B1 appears to be stable in the presence of the whole cell lysate or the purified core particle (FIG. 3C).
# [7] = biological target: core proteasome activated by Rpt2 and Rpt5 tail peptides; test: Blocking activation of core proteasome chymotrypsin-like activity by Rpt2 and Rpt5 tail peptides; type: biochemical
# Source text: as §1
# 26S proteasome assembly = test: Inhibition of proteinase activity of the 26S proteasome (casein-BODIPY degradation); conditions: read-out: IC50, inhibition of proteinase activity of the 26S proteasome assembly; model substrate casein-BODIPY; FIG. 1C
# mTOR = mTOR (Homo sapiens, UniProt P42345); test: mTOR activity in HeLa cells (Western blot with anti-phosphoS6 antibodies); type: cell-based; conditions: up to 100 nM, FIG. 3B
# [8] = Stability in the presence of cell lysate or purified CP (RP-HPLC); type: in vitro ADME; conditions: cell lysate 0.5 mg/ml or purified CP, up to 1 h at 37° C., FIG. 3C
# Procedure: as §2
# [9] = test system: proteasome (20S and 26S) in multiple myeloma cells; test: Proteasome activity in lysates of treated cultured multiple myeloma cells; type: cell-based
# [10] = test system: chymotrypsin-like activity of the core particle (CP; 20S); test: Inhibition of chymotrypsin-like peptidase activity of the proteasome core particle
# Solubility in solvents = type: physicochemical
# [11] = Chou-Talalay, fraction affected >0.3, mostly 1:1 conc. ratio
smiles,measurement,setting,value
COc1cc(CCCOC(=O)C2CCCCN2C(=O)C(=O)C2CCCCC2)cc(OC)c1OC (stereo not drawn) [B1],Cytotoxicity to MCF-7 cells,"MCF-7 cells; B1 alone, 40 nM, 24 hrs, trypan blue exclusion, FIG. 3D",cytotoxic
same,"Combination Index (CI) with bortezomib, MCF-7",MCF-7 cells; [11],below 1
same,Polyubiquitinated proteins in lysates of treated cells,[1],accumulation of polyubiquitinated proteins
same,Effect on growth of multiple myeloma RPMI8226 cells,[2]; FIG. 3D right,efficiently prevented growth
same,IC50,"[2]; Homo sapiens, RPMI-8226, FIG. 3D, read-out: IC50, multiple myeloma cultured cells",59 nM
same,IC50,[3],7.8 nM
same,Effect on post-glutamyl peptidase of the core particle,[4],inhibits
same,Cytotoxicity to MDA-MB-231 cells,"MDA-MB-231 cells; B1 alone, 160 nM, 24 hrs, trypan blue exclusion, FIG. 3D",cytotoxic
same,"Combination Index (CI) with bortezomib, MDA-MB-231",MDA-MB-231 cells; [11],below 1
same,Cytotoxicity to non-cancerous Mcf10A cells,MCF-10A cells,refractory to the treatment
same,Effect on open-gate/closed-gate conformers of the core proteasome (AFM),[5]; B1 treatment (100 nM),shift toward higher abundance of the open gate conformers
same,Content of open-gate conformers in the treated core particle (AFM),[5],unusually high content of open-gate conformers
same,Inhibition of total chymotrypsin-like activity of the proteasome in Mcf7 lysate,[6],well pronounced
same,IC50,[7]; FIG. 2C,~2 nM
same,Blocking activation of the core by the Rpt2 tail,"[7]; tail present at high, micromolar-range concentrations, FIG. 2D",exceptionally effective
same,IC50,26S proteasome assembly,41 nM
same,Effect on mTOR activity,mTOR,does not inhibit mTOR activity
same,Stability in the presence of cell lysate or purified CP,[8],remains intact
same,Total proteasome activity in lysates of treated cells versus DMSO control,"[9]; 50 nM B1, model peptide substrate, FIG. 3F left",lower than in control cells
same,Partition of activities between core particle (20S) and 26S assembly,"[9]; 50 nM B1, non-denaturing gels, FIG. 3F right",shifted in the B1-treated cells toward more of the 20S and less of the 26S proteasomes
same,Combined effect with bortezomib on chymotrypsin-like activity of the core particle,"[10]; in vitro, FIG. 1D",synergizes with bortezomib
same,IC50,"[10]; read-out: IC50, inhibition of chymotrypsin-like activity of the core particle, FIG. 1B",19 nM
COc1cc(/C=C/CCCOC(=O)C2CCCCN2C(=O)C(=O)C2CCCCC2)cc(OC)c1OC (stereo not drawn) [B4],Inhibitory properties toward the core proteasome after modification of B1,[10],does not erase the inhibitory properties
"CO[C@@H](C[C@@H]1CC[C@@H](C)[C@](O)(C(=O)C(=O)N2CCCC[C@H]2C(=O)[O-])O1)/C(C)=C/C=C/C=C/[C@@H](C)C[C@@H](C)C(=O)[C@H](OC)[C@H](O)/C(C)=C/[C@@H](C)C(=O)/C=C/[C@H](C)C[C@@H]1CC[C@@H](O)[C@H](OC)C1.[Na+] [seco-rapamycin, reference compound]",Content of open-gate conformers in the treated core particle (AFM),[5],unusually high content of open-gate conformers
COc1cc(CCCNC(=O)C2CCCCN2C(=O)C(=O)C2CCCCC2)cc(OC)c1OC (stereo not drawn) [B2],Soluble in,Solubility in solvents,"DMSO, CDCl3"
same,Inhibitory properties toward the core proteasome after modification of B1,[10],does not erase the inhibitory properties
COc1cc(CCCCCOC(=O)C2CCCCN2C(=O)C(=O)C2CCCCC2)cc(OC)c1OC (stereo not drawn) [B5],Inhibitory properties toward the core proteasome after modification of B1,[10],does not erase the inhibitory properties
